Reference: patent US12145914B2, “Compound having oxadiazole and pharmaceutical composition containing the same” (SK BIOPHARMACEUTICALS CO., LTD., priority 2018, dated 2024)

System: focal onset seizures induced by electrostimulation of 44 mA, 6 Hz, 3 sec in ICR mouse
Assay: 6 Hz method for screening anticonvulsants (6 Hz, 44 mA electrostimulation)
Format: in vivo
Settings: male ICR mice, intraperitoneal (ip), electrostimulation 44 mA, 3 sec to the eye, number of non-seizure animals/number of animals used
From the text: The utility of the compounds according to the present invention as an anticonvulsant agent has been investigated by the 6 Hz method, which has been well established as pharmacological screening methods of convulsant agents for focal onset seizures. The procedure of the 6 Hz method for screening anticonvulsant was as follows:
1) Preparation of Experimental Animals
Male ICR mice are purchased from Orient Bio, Inc. of Korea, and are stored and managed according to laboratory animal management standards of the Institutional Animal Care and Use Committee (IACUC) by putting the same in a wire net cage under an environment in which an ambient temperature of 19 to 25° C., 40 to 60% relative humidity and 12 hour periods of light/dark were auto-controlled, and water was freely taken. After stabilization for a week, mice with a body weight of 18 to 23 g were used in the experiment.
2) Evaluation of the Anticonvulsant Effect of a Compound
5% Tetracaine (Sigma) was added to both eyes to provide a local anesthetic effect at 5 to 10 minutes before the period of electrical stimulation at the animal ICR mouse. The compounds to be tested were dissolved in distilled water in which 30% polyethylene glycol 300+5% dimethylsulfoxide+5% Cremophor was dissolved and administered intraperitoneally (ip) to the animal at a dosage volume of 10 mL/kg. Then, electrostimulation of 44 mA, 6 Hz, and 3 sec was applied to the eye to induce focus-generating seizures. After the electrical stimulation, the presence of seizures due to drug effects was confirmed, and the ratio of animals showing no seizures was expressed as a protection rate (the number of non-seizure animals/the number of animals used in experiments=protection rate). […]

| SMILES | 6 Hz, 44 mA protection rate |
| --- | --- |
| Cc1nnc(CC(O)c2cc(-c3ccc(Cl)cc3)ccc2F)o1 (stereo not shown) [Example 1, 1-[5-(4-chlorophenyl)-2-fluoro-phenyl]-2-(5-methyl-1,3,4-oxadiazol-2-yl)ethanol] | ++ (0.6 to 0.8 are scored as ‘++’) |
| Cc1nnc(CC(O)c2cc(-c3ccc(C(F)(F)F)cc3)ccc2F)o1 (stereo not shown) [Example 2, 1-[2-fluoro-5-[4-(trifluoromethyl)phenyl]phenyl]-2-(5-methyl-1,3,4-oxadiazol-2-yl)ethanol] | ++ (0.6 to 0.8 are scored as ‘++’) |
| Cc1nnc(CC(OC(N)=O)c2cc(-c3ccc(C(F)(F)F)cc3)ccc2F)o1 (stereo not shown) [Example 3, [1-[2-fluoro-5-[4-(trifluoromethyl)phenyl]phenyl]-2-(5-methyl-1,3,4-oxadiazole-2-yl)ethyl] carbamate] | ++ (0.6 to 0.8 are scored as ‘++’) |
| Cc1nnc(CC(OC(N)=O)c2cc(-c3ccc(Cl)cc3)ccc2F)o1 (stereo not shown) [Example 4, [1-[5-(4-chlorophenyl)-2-fluoro-phenyl]-2-(5-methyl-1,3,4-oxadiazol-2-yl)ethyl] carbamate] | ++ (0.6 to 0.8 are scored as ‘++’) |
| OC(Cc1nnco1)c1cc(-c2ccc(C(F)(F)F)cc2)ccc1F (stereo not shown) [Example 5, 1-[2-fluoro-5-[4-(trifluoromethyl)phenyl]phenyl]-2-(1,3,4-oxadiazol-2-yl)ethanol] | + (0.2 to 0.6 are scored as ‘+’) |
| Cc1nnc(CC(OC(N)=O)c2cccc(-c3ccc(C(F)(F)F)cc3)c2)o1 (stereo not shown) [Example 7, [2-(5-methyl-1,3,4-oxadiazol-2-yl)-1-[3-[4-(trifluoromethyl)phenyl]phenyl]ethyl]carbamate] | ++ (0.6 to 0.8 are scored as ‘++’) |
| Cc1nnc(CC(O)c2cc(CCC(F)(F)F)ccc2F)o1 (stereo not shown) [Example 10, 1-[2-fluoro-5-(3,3,3-trifluoropropyl)phenyl]-2-(5-methyl-1,3,4-oxadiazol-2-yl)ethanol] | + (0.2 to 0.6 are scored as ‘+’) |
| Cc1nnc(CC(OC(N)=O)c2cc(CCC(F)(F)F)ccc2F)o1 (stereo not shown) [Example 11, [1-[2-fluoro-5-(3,3,3-trifluoropropyl)phenyl]-2-(5-methyl-1,3,4-oxadiazol-2-yl)ethyl] carbamate] | + (0.2 to 0.6 are scored as ‘+’) |
| Cc1nnc(CC(OC(N)=O)c2cc(OCCCC(F)(F)F)ccc2F)o1 (stereo not shown) [Example 16, [1-[2-fluoro-5-(4,4,4-trifluorobutoxy)phenyl]-2-(5-methyl-1,3,4-oxadiazol-2-yl)ethyl] carbamate] | ++ (0.6 to 0.8 are scored as ‘++’) |
| Cc1nnc(CC(O)c2cc(OCC(F)(F)F)ccc2F)o1 (stereo not shown) [Example 17, 1-[2-fluoro-5-(2,2,2-trifluoroethoxy)phenyl]-2-(5-methyl-1,3,4-oxadiazol-2-yl)ethanol] | + (0.2 to 0.6 are scored as ‘+’) |
| Cc1nnc(CC(OC(N)=O)c2cc(OCC(F)(F)F)ccc2F)o1 (stereo not shown) [Example 18, [1-[2-fluoro-5-(2,2,2-trifluoroethoxy)phenyl]-2-(5-methyl-1,3,4-oxadiazol-2-yl)ethyl] carbamate] | + (0.2 to 0.6 are scored as ‘+’) |
| Cc1nnc(CC(O)c2cccc(OCCCC(F)(F)F)c2)o1 (stereo not shown) [Example 19, 2-(5-methyl-1,3,4-oxadiazol-2-yl)-1-[3-(4,4,4-trifluorobutoxy)phenyl]ethanol] | + (0.2 to 0.6 are scored as ‘+’) |
| Cc1nnc(CC(OC(N)=O)c2cccc(OCCCC(F)(F)F)c2)o1 (stereo not shown) [Example 20, [2-(5-methyl-1,3,4-oxadiazol-2-yl)-1-[3-(4,4,4-trifluorobutoxy)phenyl]ethyl] carbamate] | + (0.2 to 0.6 are scored as ‘+’) |
| CCCCOc1ccc(F)c(C(Cc2nnc(C)o2)OC(N)=O)c1 (stereo not shown) [Example 22, [1-(5-butoxy-2-fluoro-phenyl)-2-(5-methyl-1,3,4-oxadiazol-2-yl)ethyl] carbamate] | + (0.2 to 0.6 are scored as ‘+’) |
| OC(Cc1nnco1)c1cc(OCCCC(F)(F)F)ccc1F (stereo not shown) [Example 23, 1-[2-fluoro-5-(4,4,4-trifluorobutoxy)phenyl]-2-(1,3,4-oxadiazol-2-yl)ethanol] | + (0.2 to 0.6 are scored as ‘+’) |
| NC(=O)OC(Cc1nnco1)c1cc(OCCCC(F)(F)F)ccc1F (stereo not shown) [Example 24, [1-[2-fluoro-5-(4,4,4-trifluorobutoxy)phenyl]-2-(1,3,4-oxadiazol-2-yl)ethyl] carbamate] | ++ (0.6 to 0.8 are scored as ‘++’) |

| SMILES | 6 Hz, 44 mA protection rate |
| --- | --- |
| CCCCCc1ccc(F)c(C(Cc2nnc(C)o2)OC(N)=O)c1 (stereo not shown) [Example 28, [1-(2-fluoro-5-pentyl-phenyl)-2-(5-methyl-1,3,4-oxadiazol-2-yl)ethyl] carbamate] | ++ (0.6 to 0.8 are scored as ‘++’) |
| Cc1nnc(CC(O)c2cc(CCCCC(F)(F)F)ccc2F)o1 (stereo not shown) [Example 32, 1-[2-fluoro-5-(5,5,5-trifluoropentyl)-phenyl]-2-(5-methyl-1,3,4-oxadiazol-2-yl)ethanol] | + (0.2 to 0.6 are scored as ‘+’) |
| Cc1nnc(CC(OC(N)=O)c2cc(CCCC(F)(F)F)ccc2F)o1 (stereo not shown) [Example 33, [1-[2-fluoro-5-(4,4,4-trifluorobutyl)phenyl]-2-(5-methyl-1,3,4-oxadiazol-2-yl)ethyl] carbamate] | + (0.2 to 0.6 are scored as ‘+’) |
| Cc1nnc(CC(OC(N)=O)c2cc(CCCCC(F)(F)F)ccc2F)o1 (stereo not shown) [Example 34, [1-[2-fluoro-5-(5,5,5-trifluoropentyl)phenyl]-2-(5-methyl-1,3,4-oxadiazol-2-yl)ethyl] carbamate] | ++ (0.6 to 0.8 are scored as ‘++’) |
| Cc1nnc(CC(O)c2cc(C(=O)NCCC(F)(F)F)ccc2F)o1 (stereo not shown) [Example 37, 4-fluoro-3-[1-hydroxy-2-(5-methyl-1,3,4-oxadiazol-2-yl)ethyl]-N-(3,3,3-trifluoropropyl)benzamide] | + (0.2 to 0.6 are scored as ‘+’) |
| Cc1nnc(CC(O)c2cc(OCCCC(F)(F)F)ccc2Cl)o1 (stereo not shown) [Example 39, 1-[2-chloro-5-(4,4,4-trifluorobutoxy)phenyl]-2-(5-methyl-1,3,4-oxadiazol-2-yl)ethanol] | + (0.2 to 0.6 are scored as ‘+’) |
| Cc1nnc(CC(O)c2cc(-c3ccc(C(F)(F)F)cc3)ccc2C)o1 (stereo not shown) [Example 42, 2-(5-methyl-1,3,4-oxadiazol-2-yl)-1-[2-methyl-5-[4-(trifluoromethyl)phenyl]phenyl]ethanol] | ++ (0.6 to 0.8 are scored as ‘++’) |
| COc1ccc(-c2ccc(C(F)(F)F)cc2)cc1C(O)Cc1nnc(C)o1 (stereo not shown) [Example 43, 1-[2-methoxy-5-[4-(trifluoromethyl)phenyl]phenyl]-2-(5-methyl-1,3,4-oxadiazol-2-yl)ethanol] | + (0.2 to 0.6 are scored as ‘+’) |
| Cc1nnc(CC(O)c2cc(-c3ccc(C(F)(F)F)cc3)ccc2Cl)o1 (stereo not shown) [Example 48, 1-[2-chloro-5-[4-(trifluoromethyl)phenyl]phenyl]-2-(5-methyl-1,3,4-oxadiazol-2-yl)ethanol] | ++ (0.6 to 0.8 are scored as ‘++’) |
| Cc1nnc(CC(OC(N)=O)c2cc(-c3ccc(C(F)(F)F)cc3)ccc2Cl)o1 (stereo not shown) [Example 50, [1-[2-chloro-5-[4-(trifluoromethyl)phenyl]phenyl]-2-(5-methyl-1,3,4-oxadiazol-2-yl)ethyl] carbamate] | ++ (0.6 to 0.8 are scored as ‘++’) |
| NC(=O)OC(Cc1nnco1)c1cc(-c2ccc(C(F)(F)F)cc2)ccc1Cl (stereo not shown) [Example 51, [1-[2-chloro-5-[4-(trifluoromethyl)phenyl]phenyl]-2-(1,3,4-oxadiazol-2-yl)ethyl]carbamate] | + (0.2 to 0.6 are scored as ‘+’) |
| OC(Cc1nnco1)c1cccc(-c2ccc(C(F)(F)F)cc2)c1 (stereo not shown) [Example 52, 2-(1,3,4-oxadiazol-2-yl)-1-[3-[4-(trifluoromethyl)phenyl]phenyl]ethanol] | + (0.2 to 0.6 are scored as ‘+’) |
| CCc1nnc(CC(O)c2cccc(-c3ccc(C(F)(F)F)cc3)c2)o1 (stereo not shown) [Example 53, 2-(5-ethyl-1,3,4-oxadiazol-2-yl)-1-[3-[4-(trifluoromethyl)phenyl]phenyl]ethanol] | + (0.2 to 0.6 are scored as ‘+’) |
| CC(=O)OC(Cc1nnc(C)o1)c1cccc(-c2ccc(C(F)(F)F)cc2)c1 (stereo not shown) [Example 55, [2-(5-methyl-1,3,4-oxadiazol-2-yl)-1-[3-[4-(trifluoromethyl)phenyl]phenyl]ethyl]acetate] | + (0.2 to 0.6 are scored as ‘+’) |
| COC(Cc1nnc(C)o1)c1cccc(-c2ccc(C(F)(F)F)cc2)c1 (stereo not shown) [Example 56, 2-[2-methoxy-2-[3-[4-(trifluoromethyl)phenyl]phenyl]ethyl]-5-methyl-1,3,4-oxadiazole] | ++ (0.6 to 0.8 are scored as ‘++’) |
